# Reference: paper PMC12134470 (International Journal of Nanomedicine, 2025)
# Key:
# [1] = tested on: MDA-MB-468; experiment: Antiproliferative activity, SRB assay; assay type: cell-based, human; settings: 72 hours of exposure; tested 5–625 μM
# [2] = cited from earlier work
structure (smiles),measurement,setting,value
"CC(C)Cc1ccc([C@H](C)C(=O)O)cc1 [DXI, dexibuprofen]",IC50 MDA-MB-468,[1],did not express any cytotoxic effect
same,Water solubility,[2],0.0684 mg/mL
